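Grown in 96-well plates, cells were treated for 48 hours with each compound at five concentrations. Insufficient inhibition: endpoint recorded as highest concentration tested. GI50 marks 50% less growth. TGI marks complete inhibition of growth.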
Tests used:
Assay in all cases: inhibition of tumour cell growth, NCI panel, 48 h
K-562 leukemia = tested on: K-562 leukemia
OVCAR-8 ovarian = tested on: OVCAR-8 ovarian
HOP-62 NSCLC = tested on: HOP-62 NSCLC
TK-10 renal = tested on: TK-10 renal
LOX IMVI melanoma = tested on: LOX IMVI melanoma
HS 578T breast = tested on: HS 578T breast
RPMI-8226 leukemia = tested on: RPMI-8226 leukemia
HCC-2998 colon = tested on: HCC-2998 colon
SK-MEL-2 melanoma = tested on: SK-MEL-2 melanoma
SNB-75 CNS = tested on: SNB-75 CNS

Row | Compound | TGI (K-562 leukemia) [µM] | TGI (OVCAR-8 ovarian) [µM] | TGI (HOP-62 NSCLC) [µM] | TGI (TK-10 renal) [µM] | TGI (LOX IMVI melanoma) [µM] | TGI (HS 578T breast) [µM] | TGI (RPMI-8226 leukemia) [µM] | TGI (HCC-2998 colon) [µM] | TGI (SK-MEL-2 melanoma) [µM] | TGI (SNB-75 CNS) [µM] | GI50 (K-562 leukemia) [µM] | GI50 (OVCAR-8 ovarian) [µM] | GI50 (HOP-62 NSCLC) [µM] | GI50 (TK-10 renal) [µM] | GI50 (LOX IMVI melanoma) [µM] | GI50 (HS 578T breast) [µM] | GI50 (RPMI-8226 leukemia) [µM] | GI50 (HCC-2998 colon) [µM] | GI50 (SK-MEL-2 melanoma) [µM] | GI50 (SNB-75 CNS) [µM]
1 | Nc1ncnc2c1ncn2C1OC(COC2C(CO)OC(OC(C(=O)O)C(O)C(OP(=O)(O)O)C(O)C(=O)O)C(O)C2O)C(O)C1O (stereo not drawn) | > 100 | > 100 | > 100 | > 100 | > 100 | 91.2 | > 100 | > 100 | > 100 | > 100 |  |  |  |  |  |  |  |  |  | 
2 | COc1cc(C)c(NC(=O)CN(C)C)cc1Nc1nc(Nc2cccc(F)c2C(N)=O)c2cc[nH]c2n1 | 6.38 | 6.32 | 5.54 | 5.55 | 6.1 | 10.2 | 7.99 | 5.09 | 3.32 | 6.92 | 1.41 | 1.64 | 1.24 | 1.93 | 1.45 | 3.08 | 2.23 | 0.621 | 0.479 | 3.37
3 | O=C(O)CCSC(=S)Nc1ccc([N+](=O)[O-])cc1 | > 63 | > 100 | > 100 | > 100 | > 75.7 | > 100 | > 77.2 | > 100 | > 100 | > 100 |  |  |  |  |  |  |  |  |  | 
4 | COC1=C(OC)[C@]2(OC)c3c(O)c(OC)c4c(c3O[C@@]23O[C@@H](c2ccccc2)CC=C3C1=O)[C@@H](O)C[C@H](c1ccccc1)O4 | 0.742 | 0.35 | 3.2 | 0.718 | 0.377 | 5.38 | 0.597 | 1.96 |  | 1.98 | 0.0972 | 0.181 | 1.54 | 0.251 | 0.157 | 1.76 | 0.0714 | 0.564 |  | 0.693
5 | Nc1ccc(-c2ccc(-c3nc4cc(Cl)c(Cl)cc4[nH]3)cc2)cc1 | > 100 | > 92.9 | > 50.5 | 37.4 | > 25.8 | 82.1 | 38.4 | 0.426 | > 100 | 55.9 | 4.32 | 14.5 | 11.7 | 1.63 | 0.0361 | 12 | 1.85 | 0.1 | 2.46 | 16.3
6 | CCCCCC/C=C1\CCC(CN(C)C)C1=O (stereo not drawn) | 7.64 | 13.5 | 35.1 | 9.14 | 3.79 | 40.3 | 4.7 | 18.3 | 26.6 | 23.8 |  |  |  |  |  |  |  |  |  | 
7 | N#CSc1ccc(S(N)(=O)=O)cc1 | > 100 | > 100 | > 100 | > 100 | > 100 | > 100 | 61.5 | > 100 | > 100 | > 100 |  |  |  |  |  |  |  |  |  | 
8 | Oc1c(I)cc(I)cc1CN(Cc1ccccn1)Cc1ccccn1 | 14.6 | 23.2 | 8.45 | 11.7 | > 33.8 | 16 | 14.1 | 34.7 | 12.2 | 7.67 | 0.548 | 0.547 | 0.311 | 0.367 | 0.629 | 2.06 | 1.17 | 4.18 | 2.08 | 0.419
9 | Cc1cc(N(CCOS(C)(=O)=O)CCOS(C)(=O)=O)ccc1C=Nc1ccc(-c2csc(-c3ccc(Br)cc3)n2)cc1 | > 97.1 | 61.6 | 26.4 | 36.9 | 36.5 | > 97.3 | > 100 | 31.8 | 61.7 | 23.8 |  |  |  |  |  |  |  |  |  | 
10 | CSC1(CC(=O)N2CCCCC2)C(=O)Nc2ccccc21 (stereo not drawn) | > 100 |  | > 100 | > 100 | > 100 | > 100 | > 100 | > 100 | > 100 | > 100 |  |  |  |  |  |  |  |  |  | 
11 | O=S(=O)(CCCCl)SCCCCl | 47.5 | 18 | > 100 | > 100 | 40.6 | 94.7 | 64.1 | > 100 | > 100 | > 94 |  |  |  |  |  |  |  |  |  | 
12 | COc1cc(N2CCC(N3CCN(C)CC3)CC2)ccc1Nc1ncc(Cl)c(Nc2ccccc2S(=O)(=O)C(C)C)n1 | 5.41 | 7.76 | 7.98 | 2.43 | 1.47 | 5.07 | 6.46 | 2.39 | 3.45 | 2.17 | 1.67 | 2.1 | 0.414 | 0.79 | 0.332 | 1.35 | 0.924 | 1.07 | 1.33 | 0.919
13 | C/C(=C\c1ccn(-c2ccc(N)cc2F)n1)[C@@H]1C[C@@H]2O[C@]2(C)CCC[C@H](C)[C@H](O)[C@@H](C)C(=O)C(C)(C)[C@@H](O)CC(=O)O1 | > 50 | > 50 | > 50 | > 50 | > 50 | > 16.6 | > 50 | > 10.6 | > 50 | 0.206 | 0.0197 | 0.0408 | 0.0384 | 0.0939 | 0.0241 | 0.0606 | 0.0204 | 0.0347 | 0.0518 | 0.00766
14 | Cc1ccc2c(c1)C=CC(C#N)N2C(=O)Oc1ccccc1 (stereo not drawn) | 64.4 | 31.1 |  | 94.2 | 40 | > 100 | 52.6 | 31.2 | 61.9 | > 100 |  |  |  |  |  |  |  |  |  | 
15 | Oc1c(CN2CCN(c3ccccc3F)CC2)cc(Br)c2cccnc12 | 19.6 | 14.5 | 14.2 | 29 | 10.3 | 55.5 | 15.6 | 15.1 | > 51.6 | > 100 | 0.366 | 0.607 | 0.596 | 5.45 | 0.676 | 1.82 | 0.791 | 2.87 | 7.65 | 1.91
16 | Cc1c(-c2nnc(-c3cc(Cl)c(Cl)cc3Cl)o2)nnn1-c1ccnc2c(C(F)(F)F)cccc12 | > 100 |  | 47.7 | 87 | 38.7 | 65.6 | 54.1 | 91.9 | 52 | 43.5 | 33.1 |  | 20.5 | 32.2 | 19.7 | 25.6 | 19.9 | 29.1 | 19.9 | 18.7
17 | O=c1ccnc(SCc2ccc(Cl)cc2)[nH]1 | > 100 | > 100 | > 100 | > 100 | > 100 | > 100 | > 100 | 66.2 | > 100 | > 100 |  |  |  |  |  |  |  |  |  | 
18 | COc1ccc2nc(-c3cc4c([nH]c5ccccc54)c(-c4ccc(F)c(F)c4)n3)[nH]c2c1 | 24.4 | 18.1 | 25.5 | 17.3 | 10.8 | 41.9 | 4.29 | 25.3 | 34.9 | 29.7 | 3.35 | 3.08 | 10.9 | 4.29 | 2.86 | 8.68 | 1.55 | 8.96 | 12.1 | 14.2
19 | C=CCSSc1ncnc2c1ncn2C1OC(CO)C(O)C1O (stereo not drawn) | > 39.4 | > 42.9 | > 100 | > 42.3 | > 78.6 | > 93.5 | 6.47 | 60 | > 41.9 | 96.9 | 1.2 | 2.87 | 1.78 | 0.598 | 0.37 | 14.5 | 1.15 | 3.06 | 6.25 | 0.731
20 | Nc1nc(-c2ccccc2)cc(-c2ccc(Cl)cc2)c1-c1nc2ccccc2o1 | 29.3 | 61.2 | 37.8 | 27.1 | 18.4 | 36.1 | 19.8 | 25.8 | 37.9 | 26.3 | 10.9 | 18.7 | 22.4 | 11.3 | 6.04 | 14.8 | 4.82 | 10.3 | 18 | 12.9
21 | Cc1cc2nc(C(Cl)Cl)nc(-c3ccccc3)n2n1 | > 100 | > 100 | 8.64 | 51.2 | > 100 | 14.5 | 44.3 | 3.49 | > 100 | 12.9 | 4.61 | 5.06 | 2.48 | 4.73 | 24.4 | 2.65 | 5.04 | 1.79 | 27.8 | 1.75
22 | Cc1ccc(NC(=O)c2cc3ccccc3cc2O)c(C)c1.Cc1ccc(NC(=O)c2cc3ccccc3cc2[O-])c(C)c1.[Ni+2] | 12.9 |  | 17 | 17 |  | 9.38 | 6.1 | 6.74 | 3.62 | 6.7 | 3.7 |  | 3.87 | 4.66 |  | 2.98 | 1.94 | 2.63 | 1.53 | 2.78
23 | N#Cc1nn(-c2cc(=O)[nH]c3ccc(Br)cc23)c(N)c1C#N | > 100 | > 100 | > 100 | > 100 | > 100 | > 100 | > 100 | > 100 | > 100 | > 100 | > 100 | > 100 | > 100 | > 100 | > 100 | 64.9 | > 100 | > 100 | > 100 | 57.1
24 | Cc1ccc(C2=NN(c3ccc(S(N)(=O)=O)cc3)C(c3cn(-c4ccccc4)nc3-c3ccccc3)C2)cc1 (stereo not drawn) | > 100 | > 100 | > 100 | > 100 | > 100 | > 100 | > 100 | > 100 | > 100 | > 100 | 3.82 | 7.53 | > 100 | 71.2 | 24.9 | 18.3 | 6.35 | 13.8 | 43.7 | 80.5
25 | COc1ccc(C2CC(=O)c3c(O)c(OC)c(OC)c(OC)c3O2)cc1O (stereo not drawn) | > 100 | > 57.1 | > 100 | > 100 | > 100 | > 100 | > 77.5 | > 100 | > 100 | > 100 | 0.0365 | 0.175 | 0.377 | > 31.4 | 0.0701 | 0.0498 | 0.286 | 0.999 | 0.24 | 0.0358
26 | Nc1c2ccccc2nc2ccccc12 (tested in a mixture with another compound) | 12.1 | 6.44 | 4.01 | 5.34 | 5.94 | 17.4 | > 100 | 4.6 | 4.23 | 8.44 | 3.81 | 0.891 | 1.54 | 1.97 | 1.87 | 3.06 | 3.86 | 1.85 | 2.16 | 3.18
27 | O=[N+]([O-])c1cc2c(c([N+](=O)[O-])c1)Nc1ccccc1O2 | > 100 | > 100 | 44.4 | 46.7 | > 100 | > 100 | 8.2 | > 100 | 40.3 | > 100 | 4.64 | 10 | 16.3 | 9.98 | 4.67 | 7.22 | 2.96 | 7.75 | 7.48 | 29.8
28 | CC#CC(=O)N1CC[C@@H](n2c(=O)n(-c3ccc(Oc4ccccc4)cc3)c3c(N)ncnc32)C1 |  | > 100 | > 100 | > 100 | 83.4 | > 100 | 66.3 | > 100 | > 100 | > 100 |  | 40.6 | 33.5 | 35 | 18.6 | 22.5 | 14.7 | 42.5 | 38.8 | 29.8
